{"source": "patent US20080275111A1", "about": "“Novel Use of Lignan Compounds” (priority 2005, published 2008)", "key": {"[1]": {"tested_on": "tissue-cultured hippocampus neuron", "test": "Reactive oxygen species production induced by BSO in tissue-cultured hippocampus neuron (DCFDA)", "format": "cell-based, mouse", "details": "1 mM BSO for 8 hours, compound 0.1, 0.5 and 1 μM; control not treated with BSO", "procedure": "Then, the antioxidant effect of the lignan compound of the present invention in the tissue-cultured hippocampus neuron was analyzed. For this analysis, the hippocampus of a fetus extracted from a pregnant (18 days) mouse was cultured in neurobasal medium (Gibco BRL) containing B-27 supplements and 2 mM L-glutamine for 10 days. To induce oxidative stress to the tissue-cultured hippocampus neuron, it was treated with 1 mM BSO for 8 hours. Here, the tissue-cultured hippocampus neuron was also treated with each concentration (0.1, 0.5 and 1 μM) of the lignan compound of the present invention simultaneously to analyze the reactive oxygen species-inhibitory effect of the lignan compound of the present invention. The control was not treated with BSO. Then, the amount of reactive oxygen species produced was measured by a method known in the art (Jung, Y. S., Biochem Biophys Res Commun., 320(3):789-94, 2004) using 10 μM DCFDA(molecular probes)."}, "cell line HT-22": {"tested_on": "cell line HT-22", "test": "Brain cell apoptosis induced by glutamate in HT-22 (WST-1)", "format": "cell-based", "details": "HT-22, 5 mM glutamate 24 hours, compound 1, 2, 5 and 10 μM", "procedure": "A cell line HT-22 derived from the hippocampus was treated with 5 mM glutamate for 24 hours to induce apoptosis. As a control, the cell line HT-22 was not treated with glutamate. Then, the cell line HT-22 was treated with the lignan compound of the present invention at concentrations (1, 2, 5 and 10 μM) for 24 hours. The cell death was analyzed with WST-1(Roche)."}, "IL-6": {"tested_on": "IL-6", "test": "IL-6 production in LPS-activated microglia (ELISA)", "format": "cell-based, rat", "details": "1 μg/ml LPS, compound 2.5 and 10 μM, 24 hours", "from_the_text": "When the microglia is activated by LPS, it synthesizes and secretes various pro-inflammatory cytokines such as IL-1, IL-6 and TNF-α (Chen, S. Neurobiol. Aging, 17:781-787, 1996). Therefore, in order to examine the anti-inflammatory effect of the lignan compound of the present invention, the effect of the lignan compound of the present invention on the production of IL-6 and TNF-α in the activated microglia. First, only the neocortex was isolated from the brain of 1 day-old rat. Then, a microglia-astroglia mixture was prepared according to a method known in the art (Kim, H. Y. et al., J. Immunol., 171:6072-6079, 2003). […] Then, the amount of IL-6 and TNF-α secreted into the cell cultured medium was measured with the solid-phase ELISA system (RPN2742 for IL-6, RPN2744 for TNF-α, Amersham Bioscience). For this analysis, 50 μl of the supernatant of the cultured medium of microglia and 50 μl of the standard of each material (purely isolated and quantified IL-6 or TNF-α) were added into a 96-well plate coated with an antibody specific to mouse IL-6 and TNF-α. […] Then, 100 μl of a stop solution (Amersham Bioscience) was added into each well to stop the reaction, and the absorbance of the solution in each well was measured with a microreader at 450 nm. […]"}, "iNOS": {"tested_on": "iNOS", "test": "iNOS expression in LPS-activated microglia (Western blotting)", "format": "cell-based, mouse", "details": "1 μg/ml LPS, compound 2.5 and 10 μM, 16 or 24 hours", "from_the_text": "(§1) In Example <6-2>, it was observed that the NO production induced by LPS in the tissue-cultured microglia of mouse was inhibited by the lignan compound of the present invention. NO is produced by iNOS enzyme of which expression is induced by activation of microglia. Therefore, the correlation between the reduction of NO production and inhibition of iNOS expression was examined. Additionally, a change in the amount of a protein COX-2 participating in the production of other inflammation-mediating materials was examined. For Western blotting analysis, tissue-cultured microglia was cultured in a 60 mm cell culture dish up to a concentration of 7.5×10^5 cells/ml. After 1 day of cultivation, the activation of microglia was induced by 1 μg/ml of LPS (Sigma) treatment. Simultaneously, the microglia was also treated with 2.5 and 10 μM of the lignan compound of the present invention together with LPS, and incubated for 16 or 24 hours. The incubated cell was washed with cold PBS 2 times, and then dissolved in a cold lysis buffer (1% SDS, 1 mM Na3VO4, 10 mM NaF, 10 mM Tris-Cl, pH 7.4 containing 1× protease inhibitors cocktail). […] Then, the amount of proteins was quantified according to BCA method. […]\n(§2) NaCl containing 0.1% Tween 20) 3 times. […] Again, the membrane was then washed with TBS-T solution 3 times, and each band on the membrane was analyzed using ECL system (Sigma)."}, "COX-2": {"tested_on": "COX-2", "test": "COX-2 expression in LPS-activated microglia (Western blotting)", "format": "cell-based, mouse", "details": "1 μg/ml LPS, compound 2.5 and 10 μM, 16 or 24 hours", "from_the_text": "as §1, §2"}}, "data": [{"smiles": "COc1cc(C[C@H](C)[C@H](C)Cc2ccc3c(c2)OCO3)ccc1O", "note": "[macelignan, (8R,8′S)-7-(3,4-methylenedioxyphenyl)-7′-(4-hydroxy-3-methoxyphenyl)-8,8′-dimethylbutane]", "values": [{"measurement": "production of reactive oxygen species in the tissue-cultured hippocampus neuron", "setting": "[1]", "value": "in the similar level as the control"}, {"measurement": "brain cell apoptosis induced by glutamate", "setting": "cell line HT-22", "value": "dose-dependently inhibited"}, {"measurement": "production of IL-6 induced by LPS", "setting": "IL-6", "value": "dose-dependently inhibited"}, {"measurement": "expression of iNOS induced by LPS", "setting": "iNOS", "value": "inhibited in a concentration dependent manner"}, {"measurement": "expression of COX-2 induced by LPS", "setting": "COX-2", "value": "inhibited in a concentration dependent manner"}]}]}
